Test results published in patent publication US20210324359A1, “USE OF GRAM-NEGATIVE LYSIN-ANTIMICROBIAL PEPTIDE (AMP) POLYPEPTIDE CONSTRUCTS IN TREATING ENDOCARDITIS” (priority 2020, published 2021).
Where two headings read alike, the source gives them in different places.

Legend:
Type in all cases: cell-based, Pseudomonas aeruginosa
P. aeruginosa isolates = test: MIC against a range of isolates in CAA + […] human serum (Table 11); details: Pseudomonas aeruginosa
[1] = test system: carbapenem-resistant P. aeruginosa strains; test: Resensitization of carbapenem-resistant strains, combinations with imipenem or meropenem (Tables 18-22); details: for MIC: Pseudomonas aeruginosa
[2] = test system: P. aeruginosa PA20 recovered from rabbit lung homogenates; details: n=48
[3] = test system: 15 P. aeruginosa isolates; test: MIC of GN370 in dog, human, rabbit and rat serum and CAAT; meropenem in CAMHB (Table 33); details: Pseudomonas aeruginosa, CAMHB
P. aeruginosa PA20 = test: MIC of GN370 and meropenem against the infecting strain; details: Pseudomonas aeruginosa
[4] = in combination with GN123, isolate PA19
[5] = in combination with GN123, isolate PA20
[6] = in combination with GN123, isolate PA21
[7] = in combination with GN123, isolate PA22
[8] = in combination with GN123, isolate PA23
[9] = in combination with GN123, isolate PA24
[10] = in combination with GN123, isolate WC-452

With `C[C@@H](O)[C@H]1C(=O)N2C(C(=O)O)=C(S[C@@H]3CN[C@H](C(=O)N(C)C)C3)[C@H](C)[C@H]12` [Meropenem, meropenem, reference compound] the MIC (P. aeruginosa isolates; ATCC17646, read-out: Meropenem MIC, strain CFS 1109 (ATCC 17646)) was 0.5 µg/mL, the MIC (P. aeruginosa isolates; ATCC27853, read-out: Meropenem MIC, strain CFS 1766 (ATCC 27853)) was 1 µg/mL and the MIC (P. aeruginosa isolates; PA1, read-out: Meropenem MIC, strain CFS1539 (PA1)) was 16 µg/mL. For the same molecule, the MIC (P. aeruginosa isolates; read-out: Meropenem MIC, strain CFS 1292) was 32 µg/mL, the MIC (P. aeruginosa isolates; read-out: Meropenem MIC, strain CFS 1540 (PA2)) was 16 µg/mL and the MIC (P. aeruginosa isolates; read-out: Meropenem MIC, strain CFS 1541 (PA3)) was 8 µg/mL. It also gave an MIC (P. aeruginosa isolates; read-out: Meropenem MIC, strain CFS 1557 (PA19)) of 32 µg/mL, an MIC (P. aeruginosa isolates; read-out: Meropenem MIC, strain CFS 1558 (PA20)) of 16 µg/mL and an MIC (P. aeruginosa isolates; read-out: Meropenem MIC, strain CFS 1559 (PA21)) of over 32 µg/mL. It also gave an MIC (P. aeruginosa isolates; read-out: Meropenem MIC, strain CFS 1560 (PA22)) of 16 µg/mL, an MIC (P. aeruginosa isolates; read-out: Meropenem MIC, strain CFS 1561 (PA23)) of 16 µg/mL and an MIC (P. aeruginosa isolates; read-out: Meropenem MIC, strain CFS 1562 (PA24)) of over 32 µg/mL. It also gave an MIC (P. aeruginosa isolates; read-out: Meropenem MIC, strain CFS 1596 (PA26)) of 0.5 µg/mL, an MIC (P. aeruginosa isolates; read-out: Meropenem MIC, strain CFS 1597 (PA27)) of 1 µg/mL and an MIC (P. aeruginosa isolates; read-out: Meropenem MIC, strain CFS 1669 (PA41)) of under 0.25 µg/mL. For the same molecule, the MIC (P. aeruginosa isolates; read-out: Meropenem MIC, strain CFS 1674 (PA46)) was 4 µg/mL, the MIC (P. aeruginosa isolates; read-out: Meropenem MIC, strain CFS 1675 (PA47)) was 4 µg/mL and the MIC ([1]; isolate PA19) was 32 µg/mL. It also gave an MIC ([1]; isolate PA20) of 16 µg/mL, an MIC ([1]; isolate PA21) of 32 µg/mL and an MIC ([1]; isolate PA22) of 16 µg/mL. It also gave an MIC ([1]; isolate PA23) of 16 µg/mL, an MIC ([1]; isolate PA24) of 32 µg/mL and an MIC ([1]; isolate WC-452) of 16 µg/mL. The “antibiotic MIC, Combination” value ([1]; in combination with GN121, isolate PA19) was 1 µg/mL, the “antibiotic MIC, Combination” value ([1]; in combination with GN121, isolate PA20) was 1 µg/mL and the “antibiotic MIC, Combination” value ([1]; in combination with GN121, isolate PA21) was 2 µg/mL. The “antibiotic MIC, Combination” value ([1]; in combination with GN121, isolate PA22) was 1 µg/mL, the “antibiotic MIC, Combination” value ([1]; in combination with GN121, isolate PA23) was 2 µg/mL and the “antibiotic MIC, Combination” value ([1]; in combination with GN121, isolate PA24) was 1 µg/mL. The “antibiotic MIC, Combination” value ([1]; in combination with GN121, isolate WC-452) was 1 µg/mL, the “antibiotic MIC, Combination” value [1, 4] was 0.5 µg/mL and the “carbapenem susceptibility class, Combination” value [1, 4] was “(S) ((S) = sensitive)”. The “antibiotic MIC, Combination” value [1, 5] was 0.5 µg/mL, the “carbapenem susceptibility class, Combination” value [1, 5] was “(S) ((S) = sensitive)” and the “antibiotic MIC, Combination” value [1, 6] was 1 µg/mL. For the same molecule, the “carbapenem susceptibility class, Combination” value [1, 6] was “(S) ((S) = sensitive)”, the “antibiotic MIC, Combination” value [1, 7] was 1 µg/mL and the “carbapenem susceptibility class, Combination” value [1, 7] was “(S) ((S) = sensitive)”. The “antibiotic MIC, Combination” value [1, 8] was 0.5 µg/mL, the “carbapenem susceptibility class, Combination” value [1, 8] was “(S) ((S) = sensitive)” and the “antibiotic MIC, Combination” value [1, 9] was 2 µg/mL. The “carbapenem susceptibility class, Combination” value [1, 9] was “(S) ((S) = sensitive)”, the “antibiotic MIC, Combination” value [1, 10] was 1 µg/mL and the “carbapenem susceptibility class, Combination” value [1, 10] was “(S) ((S) = sensitive)”. The “carbapenem susceptibility class, Combination” value ([1]; in combination with GN351, vs. WC-452) was “(S) ((S) = sensitive)”, the “carbapenem susceptibility class, Combination” value ([1]; in combination with GN370, vs. WC-452) was “(S) ((S) = sensitive)” and the “carbapenem susceptibility class, Combination” value ([1]; in combination with GN428, vs. WC-452) was “(S) ((S) = sensitive)”. The “carbapenem susceptibility class, antibiotic Alone” value ([1]; isolate PA19) was “R ((R) = resistant)”, the “carbapenem susceptibility class, antibiotic Alone” value ([1]; isolate PA20) was “R ((R) = resistant)” and the “carbapenem susceptibility class, antibiotic Alone” value ([1]; isolate PA21) was “R ((R) = resistant)”. The “carbapenem susceptibility class, antibiotic Alone” value ([1]; isolate PA22) was “R ((R) = resistant)”, the “carbapenem susceptibility class, antibiotic Alone” value ([1]; isolate PA23) was “R ((R) = resistant)” and the “carbapenem susceptibility class, antibiotic Alone” value ([1]; isolate PA24) was “R ((R) = resistant)”. For the same molecule, the “carbapenem susceptibility class, antibiotic Alone” value ([1]; isolate WC-452) was “R ((R) = resistant)”, the “Antibiotic MIC / Lysin MIC, Alone” value ([1]; vs. WC-452 (Table 22)) was 16 and the “number of isolates with Meropenem MIC […] μg/mL” value (shortened to “number of isolates”) ([2]; isolates from GN370 (3 mg/kg) + Meropenem (20 mg/kg) group) was 48. The “number of isolates” value ([2]; isolates from GN370 (3 mg/kg) group) was 48, the “number of isolates” value ([2]; isolates from GN370 (10 mg/kg) + Meropenem (20 mg/kg) group) was 48 and the “number of isolates” value ([2]; isolates from GN370 (10 mg/kg) group) was 48. The “number of isolates” value ([2]; isolates from GN370 (30 mg/kg) + Meropenem (20 mg/kg) group) was 48, the “number of isolates” value ([2]; isolates from GN370 (30 mg/kg) group) was 48 and the “number of isolates” value ([2]; isolates from Meropenem (20 mg/kg) group) was 48. The “number of isolates” value ([2]; isolates from Pre-treatment control group) was 48, the “number of isolates” value ([2]; isolates from Vehicle control group) was 48 and the MIC ([3]; ATCC25668, read-out: MIC Meropenem, strain ATCC 25668) was 2 µg/mL. It also gave an MIC ([3]; ATCC27853, read-out: MIC Meropenem, strain ATCC 27853) of 0.5 µg/mL, an MIC ([3]; PA1, read-out: MIC Meropenem, strain PA1) of 32 µg/mL and an MIC ([3]; read-out: MIC Meropenem, strain AR0231) of 128 µg/mL. It also gave an MIC ([3]; read-out: MIC Meropenem, strain AR0241) of over 256 µg/mL, an MIC ([3]; read-out: MIC Meropenem, strain AR0246) of 32 µg/mL and an MIC ([3]; read-out: MIC Meropenem, strain PA2) of 16 µg/mL. The MIC ([3]; read-out: MIC Meropenem, strain PA3) was 8 µg/mL, the MIC ([3]; read-out: MIC Meropenem, strain PA19) was 32 µg/mL and the MIC ([3]; read-out: MIC Meropenem, strain PA20) was 32 µg/mL. For the same molecule, the MIC ([3]; read-out: MIC Meropenem, strain PA22) was 16 µg/mL, the MIC ([3]; read-out: MIC Meropenem, strain PA23) was 16 µg/mL and the MIC ([3]; read-out: MIC Meropenem, strain PA24) was over 32 µg/mL. It also gave an MIC ([3]; read-out: MIC Meropenem, strain PA27) of 1 µg/mL, an MIC ([3]; read-out: MIC Meropenem, strain PA453) of 64 µg/mL and an MIC (P. aeruginosa PA20; GN370, read-out: MIC against P. aeruginosa) of 16 µg/mL. It also gave an MIC (P. aeruginosa PA20; PA20, read-out: MIC of P. aeruginosa PA20) of 16 µg/mL.
